Data published in publication PMC7884382, “A Phase 1 study of RO6870810, a novel bromodomain and extra-terminal protein inhibitor, in patients with NUT carcinoma, other solid tumours, or diffuse large B-cell lymphoma” (British Journal of Cancer, 2020).
Where two headings read alike, the source gives them in different places.

Conditions: in vivo
Description: Patients were considered evaluable for safety if they received ≥1 injection of the study drug. All adverse events (AEs) were graded per the National Cancer Institute’s Common Terminology Criteria for Adverse Events (CTCAE) version 4.03.
Grade ≤3 drug-related fever or skin or SC tissue disorders localised to the site of injection—including grade ≤3 rash, pruritus, skin induration or pain—were not considered DLTs.
Data for patients with NC and lymphoma were evaluated but not included in the MTD determination.

With `Cc1sc2c(c1C)C(c1ccc(Cl)cc1)=N[C@@H](CC(=O)NCCCN1CCN(C)CC1)c1nnc(C)n1-2` [RO6870810] the “Treatment-emergent AE: Injection site induration” value (human, 0.06 mg/kg) was 0 n (%), the “Treatment-emergent AE: Injection site pain” value (human, 0.06 mg/kg) was 1 (33.3) n (%) and the “Treatment-emergent AE: Injection site pruritus” value (human, 0.06 mg/kg) was 1 (33.3) n (%). For the same molecule, the “Treatment-emergent AE: Injection site reaction” value (human, 0.06 mg/kg) was 0 n (%), the “Treatment-emergent AE: Injection site swelling” value (human, 0.06 mg/kg) was 0 n (%) and the “Treatment-emergent AE: Malaise” value (human, 0.06 mg/kg) was 1 (33.3) n (%). The “Treatment-emergent AE: Myalgia” value (human, 0.06 mg/kg) was 0 n (%), the “Treatment-emergent AE: Nausea” value (human, 0.06 mg/kg) was 0 n (%) and the “Treatment-emergent AE: Thrombocytopenia” value (human, 0.06 mg/kg) was 0 n (%). The “Treatment-emergent AE: Vomiting” value (human, 0.06 mg/kg) was 0 n (%), the “Treatment-emergent AE: Abdominal pain” value (human, 0.1 mg/kg) was 1 (25.0) n (%) and the “Treatment-emergent AE: Anemia” value (human, 0.1 mg/kg) was 2 (50.0) n (%). For the same molecule, the “Treatment-emergent AE: Back pain” value (human, 0.1 mg/kg) was 2 (50.0) n (%), the “Treatment-emergent AE: Blood bilirubin increased” value (human, 0.1 mg/kg) was 1 (25.0) n (%) and the “Treatment-emergent AE: Constipation” value (human, 0.1 mg/kg) was 3 (75.0) n (%). The “Treatment-emergent AE: Cough” value (human, 0.1 mg/kg) was 1 (25.0) n (%), the “Treatment-emergent AE: Decreased appetite” value (human, 0.1 mg/kg) was 4 (100) n (%) and the “Treatment-emergent AE: Dehydration” value (human, 0.1 mg/kg) was 2 (50.0) n (%). The “Treatment-emergent AE: Diarrhea” value (human, 0.1 mg/kg) was 3 (75.0) n (%), the “Treatment-emergent AE: Dizziness” value (human, 0.1 mg/kg) was 2 (50.0) n (%) and the “Treatment-emergent AE: Dry mouth” value (human, 0.1 mg/kg) was 1 (25.0) n (%). The “Treatment-emergent AE: Dysgeusia” value (human, 0.1 mg/kg) was 0 n (%), the “Treatment-emergent AE: Dyspnea” value (human, 0.1 mg/kg) was 1 (25.0) n (%) and the “Treatment-emergent AE: Fatigue” value (human, 0.1 mg/kg) was 3 (75.0) n (%). For the same molecule, the “Treatment-emergent AE: Headache” value (human, 0.1 mg/kg) was 1 (25.0) n (%), the “Treatment-emergent AE: Hypomagnesaemia” value (human, 0.1 mg/kg) was 0 n (%) and the “Treatment-emergent AE: Injection site erythema” value (human, 0.1 mg/kg) was 2 (50.0) n (%). For the same molecule, the “Treatment-emergent AE: Injection site induration” value (human, 0.1 mg/kg) was 3 (75.0) n (%), the “Treatment-emergent AE: Injection site pain” value (human, 0.1 mg/kg) was 1 (25.0) n (%) and the “Treatment-emergent AE: Injection site pruritus” value (human, 0.1 mg/kg) was 0 n (%). For the same molecule, the “Treatment-emergent AE: Injection site reaction” value (human, 0.1 mg/kg) was 0 n (%), the “Treatment-emergent AE: Injection site swelling” value (human, 0.1 mg/kg) was 1 (25.0) n (%) and the “Treatment-emergent AE: Malaise” value (human, 0.1 mg/kg) was 1 (25.0) n (%). For the same molecule, the “Treatment-emergent AE: Myalgia” value (human, 0.1 mg/kg) was 1 (25.0) n (%), the “Treatment-emergent AE: Nausea” value (human, 0.1 mg/kg) was 2 (50.0) n (%) and the “Treatment-emergent AE: Thrombocytopenia” value (human, 0.1 mg/kg) was 0 n (%). The “Treatment-emergent AE: Vomiting” value (human, 0.1 mg/kg) was 4 (100) n (%), the “Treatment-emergent AE: Abdominal pain” value (human, 0.2 mg/kg) was 1 (25.0) n (%) and the “Treatment-emergent AE: Anemia” value (human, 0.2 mg/kg) was 0 n (%). The “Treatment-emergent AE: Back pain” value (human, 0.2 mg/kg) was 1 (25.0) n (%), the “Treatment-emergent AE: Blood bilirubin increased” value (human, 0.2 mg/kg) was 1 (25.0) n (%) and the “Treatment-emergent AE: Constipation” value (human, 0.2 mg/kg) was 1 (25.0) n (%). For the same molecule, the “Treatment-emergent AE: Cough” value (human, 0.2 mg/kg) was 0 n (%), the “Treatment-emergent AE: Decreased appetite” value (human, 0.2 mg/kg) was 3 (75.0) n (%) and the “Treatment-emergent AE: Dehydration” value (human, 0.2 mg/kg) was 0 n (%). The “Treatment-emergent AE: Diarrhea” value (human, 0.2 mg/kg) was 1 (25.0) n (%), the “Treatment-emergent AE: Dizziness” value (human, 0.2 mg/kg) was 1 (25.0) n (%) and the “Treatment-emergent AE: Dry mouth” value (human, 0.2 mg/kg) was 1 (25.0) n (%). For the same molecule, the “Treatment-emergent AE: Dysgeusia” value (human, 0.2 mg/kg) was 1 (25.0) n (%), the “Treatment-emergent AE: Dyspnea” value (human, 0.2 mg/kg) was 2 (50.0) n (%) and the “Treatment-emergent AE: Fatigue” value (human, 0.2 mg/kg) was 2 (50.0) n (%). The “Treatment-emergent AE: Headache” value (human, 0.2 mg/kg) was 1 (25.0) n (%), the “Treatment-emergent AE: Hypomagnesaemia” value (human, 0.2 mg/kg) was 0 n (%) and the “Treatment-emergent AE: Injection site erythema” value (human, 0.2 mg/kg) was 3 (75.0) n (%). The “Treatment-emergent AE: Injection site induration” value (human, 0.2 mg/kg) was 2 (50.0) n (%), the “Treatment-emergent AE: Injection site pain” value (human, 0.2 mg/kg) was 2 (50.0) n (%) and the “Treatment-emergent AE: Injection site pruritus” value (human, 0.2 mg/kg) was 1 (25.0) n (%). For the same molecule, the “Treatment-emergent AE: Injection site reaction” value (human, 0.2 mg/kg) was 0 n (%), the “Treatment-emergent AE: Injection site swelling” value (human, 0.2 mg/kg) was 2 (50.0) n (%) and the “Treatment-emergent AE: Malaise” value (human, 0.2 mg/kg) was 1 (25.0) n (%). For the same molecule, the “Treatment-emergent AE: Myalgia” value (human, 0.2 mg/kg) was 0 n (%), the “Treatment-emergent AE: Nausea” value (human, 0.2 mg/kg) was 2 (50.0) n (%) and the “Treatment-emergent AE: Thrombocytopenia” value (human, 0.2 mg/kg) was 0 n (%). For the same molecule, the “Treatment-emergent AE: Vomiting” value (human, 0.2 mg/kg) was 2 (50.0) n (%), the “Treatment-emergent AE: Abdominal pain” value (human, 0.3 mg/kg) was 1 (16.7) n (%) and the “Treatment-emergent AE: Anemia” value (human, 0.3 mg/kg) was 2 (33.3) n (%). The “Treatment-emergent AE: Back pain” value (human, 0.3 mg/kg) was 0 n (%), the “Treatment-emergent AE: Blood bilirubin increased” value (human, 0.3 mg/kg) was 1 (16.7) n (%) and the “Treatment-emergent AE: Constipation” value (human, 0.3 mg/kg) was 0 n (%). For the same molecule, the “Treatment-emergent AE: Cough” value (human, 0.3 mg/kg) was 0 n (%), the “Treatment-emergent AE: Decreased appetite” value (human, 0.3 mg/kg) was 6 (100) n (%) and the “Treatment-emergent AE: Dehydration” value (human, 0.3 mg/kg) was 2 (33.3) n (%). For the same molecule, the “Treatment-emergent AE: Diarrhea” value (human, 0.3 mg/kg) was 2 (33.3) n (%), the “Treatment-emergent AE: Dizziness” value (human, 0.3 mg/kg) was 1 (16.7) n (%) and the “Treatment-emergent AE: Dry mouth” value (human, 0.3 mg/kg) was 2 (33.3) n (%). For the same molecule, the “Treatment-emergent AE: Dysgeusia” value (human, 0.3 mg/kg) was 1 (16.7) n (%), the “Treatment-emergent AE: Dyspnea” value (human, 0.3 mg/kg) was 0 n (%) and the “Treatment-emergent AE: Fatigue” value (human, 0.3 mg/kg) was 2 (33.3) n (%). The “Treatment-emergent AE: Headache” value (human, 0.3 mg/kg) was 3 (50.0) n (%), the “Treatment-emergent AE: Hypomagnesaemia” value (human, 0.3 mg/kg) was 1 (16.7) n (%) and the “Treatment-emergent AE: Injection site erythema” value (human, 0.3 mg/kg) was 3 (50.0) n (%). For the same molecule, the “Treatment-emergent AE: Injection site induration” value (human, 0.3 mg/kg) was 2 (33.3) n (%), the “Treatment-emergent AE: Injection site pain” value (human, 0.3 mg/kg) was 2 (33.3) n (%) and the “Treatment-emergent AE: Injection site pruritus” value (human, 0.3 mg/kg) was 2 (33.3) n (%). For the same molecule, the “Treatment-emergent AE: Injection site reaction” value (human, 0.3 mg/kg) was 0 n (%), the “Treatment-emergent AE: Injection site swelling” value (human, 0.3 mg/kg) was 2 (33.3) n (%) and the “Treatment-emergent AE: Malaise” value (human, 0.3 mg/kg) was 1 (16.7) n (%). The “Treatment-emergent AE: Myalgia” value (human, 0.3 mg/kg) was 3 (50.0) n (%), the “Treatment-emergent AE: Nausea” value (human, 0.3 mg/kg) was 3 (50.0) n (%) and the “Treatment-emergent AE: Thrombocytopenia” value (human, 0.3 mg/kg) was 1 (16.7) n (%). For the same molecule, the “Treatment-emergent AE: Vomiting” value (human, 0.3 mg/kg) was 2 (33.3) n (%), the “Treatment-emergent AE: Injection site swelling” value (human, 0.65 mg/kg) was 0 n (%) and the “Recommended phase 2 dose” value (human, sc) was 0.65 mg/kg. For the same molecule, the “DLTs due to thrombocytopenia” value was “no DLTs due to thrombocytopenia” and the “Left ventricular ejection fraction after reduction” value was 45–50%.
